From ChEMBL document CHEMBL3813694, “Combined dual effect of modulation of human neutrophils' oxidative burst and inhibition of colon cancer cells proliferation by hydroxycinnamic acid derivatives” (Bioorg Med Chem, 2016)
pIC50: −log10 of the molar value. The source made the active and inactive calls. The rule behind the calls is not given here.

What was measured:
WiDr [1] = test: Cytotoxicity against human WiDr cells assessed as reduction in cell proliferation after 48 hrs by sulforhodamine B assay; format: functional, cell-based
WiDr [2] = test: Induction of apoptosis in human WiDr cells assessed as decrease in mitochondrial membrane potential at 50 uM after 48 hrs by JC-1 staining based flow cytometry relative to control; format: functional
Neutrophil [3] = test: Inhibition of phorbol myristate acetate-induced human neutrophils oxidative burst assessed as reduction in luminol oxidation preincubated for 5 mins followed by PMA addition measured after 15 mins by chemiluminescence assay; format: functional, cell-based
WiDr [4] = test: Cytotoxicity against human WiDr cells assessed as reduction in cell viability at 35 uM after 48 hrs by annexin V/propidium iodide dual staining based flow cytometry relative to control; format: functional
WiDr [5] = test: Cell cycle arrest in human WiDr cells assessed as accumulation at pre-G1 phase at 50 uM after 48 hrs by propidium iodide/RNase staining based flow cytometry; format: functional
WiDr [6] = test: Cytotoxicity against human WiDr cells assessed as reduction in cell proliferation after 24 hrs by sulforhodamine B assay; format: functional, cell-based
C2BBe1 [7] = test: Induction of superoxide anion radical production in human C2BBe1 cells after 48 hrs by dihydroethidium probe based flow cytometry; format: functional, cell-based
WiDr [8] = test: Cytotoxicity against human WiDr cells assessed as reduction in cell viability at 50 uM after 48 hrs by annexin V/propidium iodide dual staining based flow cytometry relative to control; format: functional
WiDr [9] = test: Cell cycle arrest in human WiDr cells assessed as accumulation at S phase at 50 uM after 48 hrs by propidium iodide/RNase staining based flow cytometry relative to control; format: functional
C2BBe1 [10] = test: Cytotoxicity against human C2BBe1 cells assessed as reduction in cell viability at 50 uM after 48 hrs by annexin V/propidium iodide dual staining based flow cytometry relative to control; format: functional
WiDr [11] = test: Cytotoxicity against human WiDr cells assessed as reduction in cell proliferation after 72 hrs by sulforhodamine B assay; format: functional, cell-based
C2BBe1 [12] = test: Induction of apoptosis in human C2BBe1 cells assessed as early apoptotic cells at 50 uM after 48 hrs by annexin V/propidium iodide dual staining based flow cytometry; format: functional, cell-based
C2BBe1 [13] = test: Cytotoxicity against human C2BBe1 cells assessed as reduction in cell proliferation after 96 hrs by sulforhodamine B assay; format: functional, cell-based; settings: C2BBe1, 96 h
C2BBe1 [14] = test: Cytotoxicity against human C2BBe1 cells assessed as reduction in cell proliferation after 48 hrs by sulforhodamine B assay; format: functional, cell-based; settings: C2BBe1, 48 h
WiDr [15] = test: Induction of hydrogen peroxide production in human WiDr cells at 35 to 50 uM after 48 hrs by DCFH2-DA probe based flow cytometry; format: functional, cell-based
C2BBe1 [16] = test: Induction of glutathione production in human C2BBe1 cells at 50 uM after 48 hrs by mercury orange dye based flow cytometry relative to control; format: functional
WiDr [17] = test: Cytotoxicity against human WiDr cells assessed as reduction in cell proliferation after 96 hrs by sulforhodamine B assay; format: functional, cell-based
C2BBe1 [18] = test: Cell cycle arrest in human C2BBe1 cells assessed as accumulation at G2/M phase at 50 uM after 48 hrs by propidium iodide/RNase staining based flow cytometry relative to control; format: functional
C2BBe1 [19] = test: Cytotoxicity against human C2BBe1 cells assessed as reduction in cell viability at 22 uM after 48 hrs by annexin V/propidium iodide dual staining based flow cytometry relative to control; format: functional
C2BBe1 [20] = test: Cytotoxicity against human C2BBe1 cells assessed as reduction in cell proliferation after 72 hrs by sulforhodamine B assay; format: functional, cell-based; settings: C2BBe1, 72 h
WiDr [21] = test: Induction of superoxide anion radical production in human WiDr cells after 48 hrs by dihydroethidium probe based flow cytometry; format: functional, cell-based
WiDr [22] = test: Induction of apoptosis in human WiDr cells assessed as early apoptotic cells at 35 to 50 uM after 48 hrs by annexin V/propidium iodide dual staining based flow cytometry; format: functional, cell-based
C2BBe1 [23] = test: Cytotoxicity against human C2BBe1 cells assessed as reduction in cell proliferation after 24 hrs by sulforhodamine B assay; format: functional, cell-based; settings: C2BBe1, 24 h
WiDr [24] = test: Induction of superoxide anion radical production in human WiDr cells at 50 uM after 48 hrs by dihydroethidium probe based flow cytometry relative to control; format: functional
[25] = Cytotoxicity against human neutrophils at 200 uM after 1 hr by trypan blue exclusion assay; format: cell-based; settings: neutrophil
C2BBe1 [26] = test: Cytotoxicity against human C2BBe1 cells assessed as reduction in cell proliferation up to 200 uM by sulforhodamine B assay; format: functional, cell-based; settings: TDE = time-dependent effect
Neutrophil [27] = test: Inhibition of phorbol myristate acetate-induced human neutrophils oxidative burst assessed as reduction in luminol oxidation up to 200 uM preincubated for 5 mins followed by PMA addition measured after 15 mins by chemiluminescence assay; format: functional
Neutrophil [28] = test: Inhibition of phorbol myristate acetate-induced superoxide radical generation in human neutrophils at 100 uM preincubated for 5 mins followed by PMA addition by lucigenin chemiluminescence assay; format: functional

| pIC50 (Neutrophil [3]) | Compound | pIC50 (WiDr [1]) | pIC50 (WiDr [6]) | pIC50 (WiDr [11]) | pIC50 (C2BBe1 [13]) | pIC50 (C2BBe1 [14]) | pIC50 (WiDr [17]) | pIC50 (C2BBe1 [20]) | pIC50 (C2BBe1 [23]) | Activity [25] [%] | Activity (C2BBe1 [26]) | further results |
| --- | --- | --- | --- | --- | --- | --- | --- | --- | --- | --- | --- | --- |
| 5.18 | CCCCCCNC(=O)/C=C/c1ccc(O)c(O)c1 [CAFFEOYLHEXYLAMIDE] | 4.46 | 4.25 | 4.45 | 4.65 | 4.66 | 4.51 | 4.63 | 4.43 | 98 |  | fold change (FC) (WiDr [2]): 1.27; Activity (WiDr [4]): 32.8%; Activity (WiDr [5]): Active; Activity (C2BBe1 [7]): Dose-dependent effect; Activity (WiDr [8]): 43.9%; Activity (WiDr [9]): 9.3%; Activity (C2BBe1 [10]): 14.7%; Activity (C2BBe1 [12]): Active; Activity (WiDr [15]): Active; fold change (FC) (C2BBe1 [16]): 1.47; Activity (C2BBe1 [18]): 8.8%; Activity (C2BBe1 [19]): 11.4%; Activity (WiDr [21]): Dose-dependent effect; Activity (WiDr [22]): Active; fold change (FC) (WiDr [24]): 2.63 |
| 3.70 | COc1cc(/C=C/C(=O)O)ccc1O [FERULATE] | < 3.70 | < 3.70 | < 3.70 | < 3.70 | < 3.70 | < 3.70 | < 3.70 | < 3.70 | 98 |  |  |
| 4.44 | CCCCCCNC(=O)/C=C/c1cc(O)c(O)c(O)c1 | 4.08 | 4.15 | 4.42 | 4.29 | 3.94 | 4.50 | 4.00 | 3.94 | 98 | tde |  |
| 4.72 | O=C(O)/C=C/c1cc(O)c(O)c(O)c1 | < 3.70 | < 3.70 | 3.94 | 4.41 | 4.06 | 3.87 | 4.23 | 3.88 | 98 | tde |  |
| 4.85 | CCCCCCNC(=O)/C=C/c1ccc(O)c(OC)c1 [FERULOYLHEXYLAMIDE] | 4.04 | 4.07 | 4.11 | 4.22 | 3.91 | 4.08 | 4.05 | 3.88 | 98 |  |  |
|  | O=C(O)/C=C/c1ccc(O)c(O)c1 [CAFFEIC ACID] |  |  |  |  |  |  |  |  | 98 |  | inhibition (INH) (Neutrophil [27]): 44%; inhibition at 100 µM (Neutrophil [28]): 84% |
